According to patent US20110021471A1, “REDUCING Abeta42 LEVELS AND Abeta AGGREGATION” (priority 2007, published 2011):
Read-outs that look alike come from different tables or passages of the source.

Assays:
human H4 cells = assay: Steroid compounds, Aβ42 levels in human H4 cells (FIG. 2, FIG. 21); format: cell-based
From the text: FIG. 21 contains the results of an in vitro assay, studying the effects of various steroid compounds on Aβ42 levels in human H4 cells. Chemical names and molecular weights of each steroid are presented.
Agents having the ability to modulate Aβ42 levels were identified as follows. […] It was hypothesized that it might be possible to convert Aβ42 increasing agents into Aβ42 reducing agents by incorporating an acidic group into the core structure. For steroids, multiple steroids containing an acidic group were obtained from Steraloids Inc. and screened for the ability to reduce Aβ42 levels.

γ-secretase = γ-secretase (Homo sapiens, UniProt P49768); assay: GSM activity of compounds that bind Aβ or Aβ amyloid (cell-based or cell-free γ-secretase assays, FIG. 12); settings: two doses (10 and 100 μM)
Experimental: A literature search was performed to identify compounds reported to bind to the Aβ peptide directly or amyloid. These candidates were initially tested in cell-based assays or cell-free in vitro γ-secretase assays at two doses (10 and 100 μM).
Finally, X-34 was tested for its ability to modulate Aβ42 amounts in an APP transgenic mouse (Tg2576).

[1] = tested on: Human H4 neuroglioma cells expressing wild-type APP695 protein or CTF105; assay: Cell-based screens for amyloid-β modulation (H4 cells, ELISA); settings: H4 cells expressing APP
From the text: Photoaffinity labelling. All experiments used the following general protocol. […] Cell-based screens for amyloid-β modulation. […] Statistical analysis.

| SMILES | Aβ42 levels (acidic steroids) (human H4 cells) | Aβ42 levels (acidic steroids) (human H4 cells; listed as 5-β-cholanic acid) | Aβ42 levels (acidic steroids) (human H4 cells; listed as 5β-Cholanic acid) | GSM activity (γ-secretase) | Aβ42 levels [1] |
| --- | --- | --- | --- | --- | --- |
| C[C@H](CCC(=O)O)[C@H]1CC[C@H]2[C@@H]3[C@H](O)C[C@@H]4C[C@H](O)CC[C@]4(C)[C@H]3CC[C@]12C [5β cholanic acid 3a, 7a diol] | does not | – | – | – | – |
| C[C@H](CCC(=O)O)[C@H]1CC[C@H]2[C@@H]3CC[C@@H]4CCCC[C@]4(C)[C@H]3CC[C@]12C [5β-cholanic acid] | one of the more potent Aβ42 reducing agents | most potent Aβ42 lowering GSM | potently reduces Aβ42 | – | – |
| CNc1ccc(-c2nc3ccccc3s2)cc1 [BTA-1] | – | – | – | did not act as GSMs | – |
| O=S(=O)(O)c1cccc2c(-c3ccc(Nc4ccccc4)c4c(S(=O)(=O)O)cccc34)ccc(Nc3ccccc3)c12 [Bis-ANS, 4,49-dianilino-1,19-binaphthyl-5,59-disulphonic acid] | – | – | – | Aβ42-lowering | decrease |
| O=C1NC(=O)c2cc(Nc3ccccc3)c(Nc3ccccc3)cc21 [DAPH, 4,5-dianilinophthalimide] | – | – | – | Aβ42-raising | selectively increase |
